Like-named read-outs stand apart in the source and are kept apart here.
Columns and labels:
[1] = test system: rat L-NAME-induced hypertension; assay: Systolic blood pressure in rat L-NAME-induced hypertension, single oral dose; assay type: in vivo; details: for Delta vs basal (mmHg), systolic blood pressure: 5-ISMN 30 mg/kg oral
Procedure: To assess the in vivo NO-dependent activity, Compound (6) was evaluated for systolic blood pressure (SBP) reduction efficacy in a rat model of NO-deprivation induced by L-NAME and compared with 5-ISMN.
(§1) Fasted male SD rats (250-300 g, n=3-5 per group), obtained from Harlan Italy (Correzzana, Milan, Italy) were orally treated with tested compounds or vehicle (DMSO:Methocel 1% 2/98 v/v) in a total volume of 4 ml/kg by gavage. At each time point (1, 3, 6 and 24 h) animals were deeply anesthetized with Zoletil® 100 (3 mg/kg), given intramuscularly. Thereafter, a pressure catheter (Samba Sensors, Harvard Apparatus, UK) was introduced into the common carotid artery for central blood pressure measurement. Pressure transducer was connected to a personal computer, in order to allow real time monitor of the pressure tracing. After 10 minutes of basal recording, L-NAME (50 mg/kg) was administered intraperitoneally and the effect on SBP monitored. When the SBP stabilized (5 minutes without variations) the recording was stopped. To further confirm that functional activity was NO-dependent, at each time point blood ^15N-nitrite levels were measured following the procedure described in Example 12.

[2] = test system: rat L-NAME-induced hypertension; assay: In vivo tolerance evaluation, L-NAME-induced hypertension after 5-day oral treatment; details: 5-ISMN 30 mg/kg; for Delta vs basal (mmHg): peak effect 1 hour
Procedure: as §1
To investigate whether the compound (6) induced nitrate tolerance, as observed for most of the drugs belonging to the nitrate class, the L-NAME-induced hypertension rat model described in Example 7 was performed following a repeated oral treatment. Rats were orally treated for 5 days with vehicle, compound (6) (100 mg/kg) or 5-ISMN (30 mg/kg). […] The experiments were performed at the peak effect (1 hour for 5-ISMN and 3 hours for Compound (6)), results are reported in Table 3.

[3] = test system: isolated aortas from rats; assay: Ex vivo tolerance evaluation, vascular response of isolated rat aortas; assay type: cell-based; details: for EC50 at 30 mg/kg: Rattus norvegicus, read-out: EC50 (μM), vascular response to 5-ISMN
Procedure: (§2) Thoracic aortas from male New Zealand rabbits or male Sprague Dawley (SD) were used. The aortas were placed immediately in Krebs-HEPES buffer (pH 7.4; composition mM: NaCl 130.0, KCl 3.7, NaHCO3 14.9, KH2PO4 1.2, MgSO4.7H2O 1.2, Glucose 11.0, HEPES 10.0, CaCl2.2H2O 1.6). Connective tissue was removed and aortas were cut into ring segments (4-5 mm in length). Each ring was placed in a 5 mL tissue bath filled with Krebs-HEPES buffer (37° C.) aerated with 95% O2 and 5% CO2 and was attached to a force transducer (Grass FT03), connected to a BIOPAC MP150 System for measurement of the isometric tension. Preparations were allowed to equilibrate for 1 h at a resting tension of 2 g for rabbit aortas and 1 g for rat aortas with changes of the buffer every 15 min. Then the rings were stimulated by exposure to 90 mM KCl (3 times) with intervening washings.
(§3) Rat aorta. After equilibration, rat aortas were precontracted with KCl (90 mM) and, when the contraction was stable, a cumulative concentration-response curve to acetylcholine (ACh, 0.01-100 μM) was added. After washout, the rings were precontracted again with KCl (90 mM). When a steady-state level of contraction was obtained, a cumulative concentration-response curve to the tested compounds (0.01-100 μM) was obtained.
(§4) Data analysis. Results are given as mean±SEM. Vascular responses are expressed as percentage relaxation and plotted vs concentration. The sensitivity of isolated aorta to different vasodilators is expressed as the concentration that elicited 50% of the maximal responses (EC50). Responses are quantified in terms of EC50 and Emax (maximal vasodilating effect) values, obtained from the concentration-response curve by nonlinear curve fitting, using GraphPad software.
Tolerance to nitrate was further investigated assessing the vascular effects of Compound (6) following repeated treatment compared with 5-ISMN. The vascular response to the compound itself was assessed on isolated aortas from rats orally treated for 5 days with Compound (6) (100 mg/kg). The vascular response was performed as described in Example 6.
Vascular responses were performed 1 h (ISMN) or 3 h (Compound (6)) after the last administration, the concentrations of tested compound that elicited the 50% of the maximal responses (EC50) are shown in Table 4.

[4] = test system: endothelial-dependent vasodilation of rat aortas; assay: Endothelial dysfunction evaluation, vascular response to acetylcholine; assay type: cell-based; details: 5-ISMN 30 mg/kg; for Emax at 30 mg/kg: Rattus norvegicus, read-out: % relaxation (Emax), response to acetylcholine
Procedure: as §2, §3, §4
Endothelial-dependent vasodilation (vascular response to acetylcholine, ACh) was assessed following 5-day treatment with Compound (6) (100 mg/kg) or 5-ISMN (30 mg/kg). A relaxant response to ACh indicated the presence of a functional endothelium. The vascular response was performed as described in Example 6.

[5] = test system: hypertonic saline-induced IOP increase in rabbits; assay: IOP lowering activity in hypertonic saline-induced IOP increase in rabbits; assay type: in vivo, New Zealand White rabbits
Source text: Intraocular pressure (IOP) lowering activity in hypertonic saline-induced IOP increase in rabbits.
This animal model of elevated IOP was used for assessing the intraocular pressure (IOP) lowering activities of some compounds of the invention, timolol, dorzolamide and 5-isosorbide mononitrate.
• compounds (6), (20) and (25) • timolol and dorzolamide that are drugs commonly used for the treatment of glaucoma and ocular hypertension. • Isosorbide mononitrate (5-ISMN) that is a commonly used nitric oxide donor drug.
(§5) Timolol, dorzolamide and 5-ISMN were tested as reference compounds. Adults male New Zealand White rabbits weighting 1.8-2.0 Kg were used in the experiments.
IOP was measured using a Tono-Pen XL prior to hypertonic saline injection (basal) and at 30, 60, 120 and 240 min thereafter. Vehicle (5% cremophor-EL; 0.3% DMSO; 0.2 mg/ml BAK in PBS pH 6.0) and all the tested compounds dissolved in the vehicle were instilled as eye drops immediately after hypertonic saline injection. Eyes were randomly assigned to different treatment groups. Vehicle and the tested compounds were directly instilled into the conjunctiva pocket at the desired doses. One drop of 0.4% oxybuprocaine hydrochloride (Novesine, Sandoz) was instilled in each eye immediately before each set of pressure measurements.
Results are reported in Table 6, the ocular hypotensive activities of the tested compounds are expressed as IOP change at 60 and 120 minutes after topical administration versus vehicle and versus the basal IOP.

[6] = test system: ocular normotensive New Zealand rabbits; assay: IOP lowering activity in ocular normotensive New Zealand rabbits; assay type: in vivo, New Zealand White rabbits
Procedure: Intraocular pressure (IOP) lowering activity in ocular normotensive New Zealand rabbits.
• compound (6) • timolol that is a drug commonly used for the treatment of glaucoma and ocular hypertension. • Isosorbide mononitrate (5-ISMN) that is a commonly used nitric oxide donor drug.
as §5
IOP was measured using a pneumatonometer 30 CLASSIC™ before topical application (basal) and a different time point (30, 60, 120, 240 and 300 min) thereafter. Vehicle (5% cremophor-EL; 0.3% DMSO; 0.2 mg/ml BAK in PBS pH 6.0) or tested compounds dissolved in the vehicle were instilled as eye drops into the conjunctiva pocket. Eyes were randomly assigned to different treatment groups. One drop of 0.4% oxybuprocaine hydrochloride (Novesine, Sandoz) was instilled in each eye immediately before each set of pressure measurements.
The test results are reported in Table 7, the ocular hypotensive activity is expressed as IOP changes at 30, 60, 120 and 300 minutes after topical administration versus vehicle and versus IOP at basal.

[7] = test system: lipidic peroxidation of membrane lipids in rat hepatocytes (hepatic microsomal membranes); details: Method B; from Chegaev et al.; read-out: Antioxidant activity IC50 μM (CL 95%); cited from earlier work
[8] = 60 min after topical administration
[9] = 120 min after topical administration

Which “Delta vs basal (mmHg), systolic blood pressure” value ([1]; 1 hour) does the source give for `O=[N+]([O-])O[C@@H]1CO[C@H]2[C@@H]1OC[C@@H]2O` [Compound 5-ISMN, isosorbide-5-mononitrate] here?
Its value is 10.5 ± 6.1 mmHg.

What about the “Delta vs basal (mmHg), systolic blood pressure” value ([1]; 3 hours) of the same molecule?
Its value is 6.5 ± 2.4 mmHg.

What about the “Delta vs basal (mmHg), systolic blood pressure” value ([1]; 6 hours) of the same molecule?
The value was 51.2 ± 5.7 mmHg.

And the “Delta vs basal (mmHg), systolic blood pressure” value ([1]; 24 hours)?
The value was 83 ± 9 mmHg.

And the “time over which L-NAME induced hypertension was counteracted after treatment” value ([1]; single oral administration, 5-ISMN 30 mg/kg, Compound (6) 100 mg/kg)?
Its value is 3 h.

And the “efficacy in preventing L-NAME-induced hypertension after 5-day oral treatment” value ([2]; compound (6) 100 mg/kg)?
Its value is “did not maintain its efficacy”.

And the “Delta vs basal (mmHg)” value ([2]; acute)?
The value was 10.5 ± 6.1 mmHg.

And the “Delta vs basal (mmHg)” value ([2]; repeated (5 days oral))?
Its value is 88 ± 11.5 mmHg.

And the “vascular sensitivity of aortas of treated animals to the compound itself versus vehicle/control arteries” value ([3]; 5-day oral treatment, 5-ISMN 30 mg/kg, Compound (6) 100 mg/kg)?
The value was “showed a reduced vascular response”.

And the EC50 at 30 mg/kg ([3]; 1 h)?
Its EC50 at 30 mg/kg is 20 ± 0.6 µM.

What about the EC50 at 30 mg/kg [3] of the same molecule?
The EC50 at 30 mg/kg was 127 ± 48 µM.

And the “effect on endothelial-dependent vasorelaxation (response to ACh)” value ([4]; 5-day treatment, Compound (6) 100 mg/kg)?
The value was “caused a reduced response to Ach”.

And the Emax at 30 mg/kg ([4]; 120 h, repeated (5-day treatment))?
The Emax at 30 mg/kg was 78.2 ± 9.2%.

And the Emax at 30 mg/kg ([4]; acute)?
The Emax at 30 mg/kg was 92.7 ± 4.3%.

And the “ΔΔ (mmHg), IOP change versus vehicle and versus basal IOP” value [5, 8]?
Its value is −0.7 ± 2.9 mmHg.

And the “ΔΔ (mmHg), IOP change versus vehicle and versus basal IOP” value [5, 9]?
Its value is −6.6 ± 1.8 mmHg.

What about the “ΔΔ (mmHg), IOP change versus vehicle and versus IOP at basal” value ([6]; 30 min after topical administration) of the same molecule?
Its value is −1.5 ± 0.3 mmHg.

And the “ΔΔ (mmHg), IOP change versus vehicle and versus IOP at basal” value [6, 8]?
The value was −1.7 ± 0.4 mmHg.

And the “ΔΔ (mmHg), IOP change versus vehicle and versus IOP at basal” value [6, 9]?
Its value is −0.6 ± 0.4 mmHg.

And the “ΔΔ (mmHg), IOP change versus vehicle and versus IOP at basal” value ([6]; 300 min after topical administration)?
Its value is −0.8 ± 0.4 mmHg.

With `CC1=NN(c2ccccc2)C(=O)C1` [Edavarone] as the molecule, how does the IC50 [7] read?
The IC50 was 17 µM.

For `COc1ccc2[nH]cc(CCNC(C)=O)c2c1` [Melatonin], which IC50 [7] is on record?
Its IC50 is 476 µM.

— patent US9446015B2, “Quinone based nitric oxide donating compounds for ophthalmic use” (NICOX SCIENCE IRELAND, priority 2012, dated 2016)
